Experimental data as given in US20260258039A1, “AROMATIC COMPOUND, METHOD FOR PREPARING SAME, AND USE THEREOF IN PREPARATION OF ESTROGEN RECEPTOR DEGRADER” (Hinova Pharmaceuticals Inc., priority 2022, published 2026).
Where two headings read alike, the source gives them in different places.

Legend:
ER [1] = target: T1, ER (Homo sapiens, UniProt P03372); test: Degradation activities on ER (Western blotting) in T47D breast cancer cells; assay type: cell-based; conditions: Western blot; for Percentage reduction of ER: 24 h
T1 construct: T47D breast cancer cells were subcultured in cell culture medium; endogenous in cells; host or cells: T47D breast cancer cells
T1 sequence (P03372 1-595): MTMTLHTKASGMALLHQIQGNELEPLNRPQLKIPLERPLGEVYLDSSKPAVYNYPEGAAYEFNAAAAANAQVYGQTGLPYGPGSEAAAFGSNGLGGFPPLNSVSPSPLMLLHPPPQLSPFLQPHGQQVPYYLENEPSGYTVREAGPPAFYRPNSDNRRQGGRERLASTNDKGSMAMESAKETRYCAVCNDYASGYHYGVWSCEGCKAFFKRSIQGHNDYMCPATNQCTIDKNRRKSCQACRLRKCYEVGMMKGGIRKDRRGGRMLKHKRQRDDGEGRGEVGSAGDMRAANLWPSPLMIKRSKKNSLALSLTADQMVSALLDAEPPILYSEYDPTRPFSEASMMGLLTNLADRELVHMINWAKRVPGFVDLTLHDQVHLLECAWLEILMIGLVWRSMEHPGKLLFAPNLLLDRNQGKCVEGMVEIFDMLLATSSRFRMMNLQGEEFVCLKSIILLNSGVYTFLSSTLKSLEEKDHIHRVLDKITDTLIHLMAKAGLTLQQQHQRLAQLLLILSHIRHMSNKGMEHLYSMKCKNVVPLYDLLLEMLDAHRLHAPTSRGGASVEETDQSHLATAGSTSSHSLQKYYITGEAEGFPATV
Method: T47D breast cancer cells were subcultured in cell culture medium, and the cells in good growth condition were seeded into 6-well plate at 2 mL/well, with 2.5×10^5 cells per well. The cells were incubated overnight in a 37° C. incubator under 5% CO2. The drug was prepared into 10 mM stock solution with dimethyl sulfoxide (DMSO). Prior to use, the stock solution was diluted with DMSO in a ratio of 1:3. […] of the diluted compound was added to the cell culture wells (to ensure a DMSO concentration of 0.1% in the culture system), and each concentration was repeated twice. The plate were gently shaken to mix. Additionally, the negative control wells (containing equal amount of DMSO) and the positive control wells were set up. After 24 hours of culture, the cells were lysed with RIPA cell lysis buffer to extract proteins, and the protein concentration was measured using a BCA kit. The protein loading buffer (5×) was added, and the plate was heated at 100° C. for 5 min. Then, the sample was stored at −20° C. […] of protein collected from each well was loaded onto a polyacrylamide gel for electrophoresis. The protein is transferred from the polyacrylamide gel to a PVDF membrane, blocked with 5% skim milk at room temperature for 1 h, and incubated overnight at 4° C. with primary antibodies Anti-ERα rabbit mAb (CST, Cat #: 8644S) and Anti-GAPDH rabbit mAb (CST, Cat #: 2118L). The membrane was washed three times with TBST solution, with 10 min for each time. The secondary antibody (horseradish peroxidase-labeled goat anti-rabbit IgG) was incubated at room temperature for 2 h, and then the membrane was washed three times with TBST solution, with 10 min for each time. Finally, ECL chromogenic solution was added for color development, and an automatic chemiluminescence instrument was used to take pictures. Images were collected and analyzed.
The degradation activities of the compounds according to the present invention towards ER, as tested by western blotting, are presented in Table 2

[2] = system: MCF-7 breast cancer cells; test: Inhibition of proliferation of MCF-7 breast cancer cells (agarose culture, CellTiter-Glo 3D); assay type: cell-based; conditions: MCF-7 cells, 15 days of cultivation, read-out: IC50
ER [3] = target: T1, ER; test: Degradation activities on ER (ELISA) in T47D breast cancer cells; assay type: cell-based; conditions: T47D cells, 24 h, ELISA; for DC50: concentration required to degrade 50% of the target protein; for Dmax: maximum percentage of target protein degraded
Summary of the method: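 T47D cells were seeded at 2.5×10^4/well, grown 3 days at 37 °C, 5% CO2, then exposed 24 h to compound at 100, 25, 6.25, 1.56, 0.39 and […] nM (final). ER protein was quantified by sandwich ELISA with HRP/TMB read at 450 nm, and DC50 and Dmax came from dose-response fits.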

[4] = Pharmacokinetics in female ICR mice; conditions: plasma; for half-life / AUC(0-inf): female, ICR, mouse, po; for AUC(0-inf): AUCinf (μg*h/mL); for AUC(0-inf) / AUCinf (μg*h/mL) / T1/2 (h): oral administration 3 mg/kg, female ICR mice
Method: Pharmacokinetic experimental steps: A suitable amount of compound to be administered was weighed, and after the final volume required was calculated, a drug solution with corresponding concentration was prepared using the medium (DMSO/HS-15/Tween 80/D5W (5:5:2:88, v/v/v/v)). For intravenous administration, each drug was administered to 9 animals (female ICR mice, provided by Chengdu Dossy Experimental Animal Co., Ltd.) at a dose of 1 mg/kg (drug volume of 10 mL/kg, drug concentration of 0.1 mg/mL). After administration, samples were alternately collected from three animals of each group at time points of 5 min, 15 min, 30 min, 1 h, 2 h, 4 h, 8 h, 12 h, and 24 h. For oral gavage, each drug was administered to 9 animals (female ICR mice) at a dose of 3 mg/kg (drug volume of 10 mL/kg, drug concentration of 0.3 mg/mL). After administration, samples are alternately collected from three animals of each group at time points of 15 min, 30 min, 1 h, 2 h, 4 h, 6 h, 8 h, 12 h, and 24 h. The samples were anticoagulated with EDTA-K2 and centrifuged at 4° C. for 5 min to separate the plasma. The plasma samples were vortexed and mixed. A suitable amount of internal standard working solution was added to the 96-well plate containing samples used for plotting standard curve, samples used for quality control, or samples to be tested; A suitable amount of methanol was added to the blank sample, vortexed and mixed thoroughly, and then centrifuged for 15 min before the supernatant was collected and injected to LC-MS/MS for analysis. The plasma concentration at each time point was used to calculate the main pharmacokinetic parameters using the Winnolin 8.3 non-compartmental model.

Compound	Percentage reduction of ER (ER [1]; compound concentration 1 nM) [%]	DC50 (ER [3]) [nM]	IC50 ([2]; Homo sapiens, MCF7, 360 h) [nM]	Dmax (ER [3]; read-out: Dmax) [%]	also measured
3-(5-(7-((1-(2,6-difluoro-4-((3,4-cis)-3-(2-fluorophenyl)-7-hydroxychroman-4-yl)phenyl)piperidin-4-yl)methyl)-2,7-diazaspiro[3.5]nonane-2-yl)-1-oxoisoinodolin-2-yl)piperidin-2,6-dione [Example 33]	53	< 10	–	–	IC50 [2]: < 10 nM; Dmax (ER [3]): B (B: 75-50%)
O=C1CCC(N2Cc3cc(N4CCC(CN5CC6(CCN(c7ccc([C@@H]8c9ccc(O)cc9CC[C@@H]8c8ccccc8)cc7)CC6)C5)CC4)ccc3C2=O)C(=O)N1 (stereo partly drawn) [Example 11]	–	< 10	< 10	50 to 75	Percentage reduction of ER (ER [1]; compound concentration 10 nM): 84%
O=C1CCC(N2Cc3cc(N4CC5CN(CC6CCN(c7ccc([C@@H]8c9ccc(O)cc9CC[C@@H]8c8ccccc8)cc7)CC6)CC5C4)ccc3C2=O)C(=O)N1 (stereo partly drawn) [Example 26, 3-(5-(5-((1-(4-((1R,2S)-6-hydroxyl-2-phenyl-1,2,3,4-tetrahydronaphthalen-1-yl)phenyl)piperidin-4-yl)methyl)hexahydropyrrolo[3,4-c]pyrrole-2(1H)-yl)-1-oxoisoinodolin-2-yl)piperidin-2,6-dione]	56	< 10	< 10	50 to 75	–
O=C1CCC(N2Cc3cc(N4CC5(CCN(CC6CCN(c7ccc([C@@H]8c9ccc(O)cc9CC[C@@H]8c8ccccc8)cc7)CC6)C5)C4)ccc3C2=O)C(=O)N1 (stereo partly drawn) [Example 31, 3-(5-(6-((1-(4-((1,2-cis)-6-hydroxyl-2-phenyl-1,2,3,4-tetrahydronaphthalen-1-yl)phenyl)piperidin-4-yl)methyl)-2,6-diazaspiro[3.4]octane-2-yl)-1-oxoisoinodolin-2-yl)piperidin-2,6-one]	–	–	11 to 50	–	Percentage reduction of ER (ER [1]; compound concentration 100 nM): 50%
O=C1CCC(N2Cc3cc(N4CC5(CCN(CC6CCN(c7c(F)cc([C@@H]8c9ccc(O)cc9OC[C@@H]8c8c(F)cccc8F)cc7F)CC6)CC5)C4)ccc3C2=O)C(=O)N1 (stereo partly drawn) [Example 37]	–	< 10	–	50 to 75	half-life ([4]; 3 mg/kg): > 3.5 h; AUC(0-inf) ([4]; 3 mg/kg): > 2500 ng·h/mL
O=C1CCC(N2Cc3cc(N4CC5(CN(CC6CCN(c7ccc([C@@H]8c9ccc(O)cc9OC[C@@H]8c8ccccc8)cc7)CC6)C5)C4)ccc3C2=O)C(=O)N1 (stereo partly drawn) [Example 57, 3-(5-(6-((1-(4-((3S,4R)-7-hydroxyl-3-phenyl-chroman-4-yl)phenyl)piperidin-4-yl)methyl)-2,6-diazaspiro[3.3]heptan-2-yl)-1-oxoisoinodolin-2-yl)piperidin-2,6-one]	77	–	< 10	–	–
O=C1CCC(N2Cc3cc(N4CCC5(CC4)CN(CC4CCN(c6ccc([C@@H]7c8ccc(O)cc8OC[C@@H]7c7ccccc7)cc6)CC4)C5)ccc3C2=O)C(=O)N1 (stereo partly drawn) [Example 58, 3-(5-(2-((1-(4-((3S,4R)-7-hydroxyl-3-phenyl-chroman-4-yl)phenyl)piperidin-4-yl)methyl)-2,7-diazaspiro[3.5]nonan-7-yl)-1-oxoisoinodolin-2-yl)piperidin-2,6-dione]	76	–	< 10	–	–
O=C1CCC(N2Cc3cc(N4CC5(CCN(CC6CCN(c7ccc([C@@H]8c9ccc(O)cc9OC[C@@H]8c8c(F)cccc8F)cc7F)CC6)CC5)C4)ccc3C2=O)C(=O)N1 (stereo partly drawn) [Example 65, 3-(5-(7-((1-(4-(3-(2,6-difluorophenyl)-7-hydroxyl-chroman-4-yl)-2-fluorophenyl)piperidin-4-yl)methyl)-2,7-diazaspiro[3.5]nonane-2-yl)-1-oxoisoinodolin-2-yl)piperidin-2,6-dione]	–	< 10	11 to 50	50 to 75	half-life ([4]; 3 mg/kg): > 3.5 h; AUC(0-inf) ([4]; 3 mg/kg): > 2500 ng·h/mL
O=C1CCC(N2Cc3cc(N4CC5(CCN(CC6CCN(c7ccc([C@@H]8c9ccc(O)cc9OC[C@@H]8c8c(F)cccc8F)cc7F)CC6)CC5)C4)ccc3C2=O)C(=O)N1 (stereo partly drawn) [Example 70, 3-(5-(7-((1-(4-((3S,4R)-3-(2,6-difluorophenyl)-7-hydroxychroman-4-yl)-2-fluorophenyl)piperidin-4-yl)methyl)-2,7-diazaspiro[3.5]nonane-2-yl)-1-oxoisoinodolin-2-yl)piperidin-2,6-dione]	–	< 10	–	–	AUCinf (μg*h/mL) [4]: A (A: > 2.5 μg*h/mL); T1/2 (h) [4]: A (A: >3.5 h); IC50 [2]: < 10 nM; Dmax (ER [3]): B (B: 75-50%)
O=C1CCC(N2Cc3cc(N4CC5(CCN(CC6CCN(c7ccc([C@@H]8c9ccc(O)cc9OC[C@@H]8c8c(F)cccc8F)cc7)CC6)CC5)C4)ccc3C2=O)C(=O)N1 (stereo partly drawn) [Example 73, 3-(5-(7-((1-(4-((3S,4R)-3-(2,6-difluorophenyl)-7-hydroxychroman-4-yl)phenyl)piperidin-4-yl)methyl)-2,7-diazaspiro[3.5]nonane-2-yl)-1-oxoisoindol-2-yl)piperidin-2,6-dione]	–	–	–	–	T1/2 (h) [4]: A (A: >3.5 h); AUCinf (μg*h/mL) ([4]; 3 mg/kg): B (B: 1.4-2.5 μg*h/mL); IC50 [2]: < 10 nM; Dmax (ER [3]): B (B: 75-50%)
O=C1CCC(N2Cc3cc(N4CC5(CCN(CC6CCN(c7ccc([C@@H]8c9ccc(O)cc9OC[C@@H]8c8ccccc8)cc7)CC6)CC5)C4)ccc3C2=O)C(=O)N1 (stereo partly drawn) [Example 79, 3-(5-(7-((1-(4-((3S,4R)-7-hydroxyl-3-phenylchroman-4-yl)phenyl)piperidin-4-yl)methyl)-2,7-diazaspiro[3.5]nonane-2-yl)-1-oxoisoinodolin-2-yl)piperidin-2,6-dione]	70	< 10	< 10	50 to 75	–
O=C1CCC(N2C(=O)c3ccc(N4CC5(CCN(CC6CCN(c7ccc([C@@H]8c9ccc(O)cc9OC[C@@H]8c8ccccc8)cc7)CC6)CC5)C4)cc3C2=O)C(=O)N1 (stereo partly drawn) [Example 81, 2-(2,6-dioxopiperidin-3-yl)-5-(7-((1-(4-((3S,4R)-7-hydroxyl-3-phenylchroman-4-yl)phenyl)piperidin-4-yl)methyl)-2,7-diazaspiro[3.5]nonane-2-yl)isoinodolin-1,3-dione]	–	10 to 50	11 to 50	50 to 75	ER degradation activity (in words) (ER [1]): good ER degradation activity; Percentage reduction of ER (ER [1]; compound concentration 10 nM): 82%
O=C1CCC(N2Cc3cc(N4CC5CN(CC6CCN(c7ccc([C@@H]8c9ccc(O)cc9OC[C@@H]8c8ccccc8)cc7)CC6)CC5C4)ccc3C2=O)C(=O)N1 (stereo partly drawn) [Example 83, 3-(5-(5-((1-(4-((3S, 4R)-7-hydroxyl-3-phenylchroman-4-yl)phenyl)piperidin-4-yl)methyl)hexahydropyrrolo[3,4-c]pyrrole-2(1H)-yl)-1-oxoisoinodolin-2-yl)piperidin-2,6-dione]	87	–	< 10	–	–
O=C1CCC(N2Cc3cc(N4CC5(CCN(CC6CCN(c7ccc([C@@H]8c9ccc(O)cc9OC[C@@H]8c8ccccc8)cc7F)CC6)CC5)C4)ccc3C2=O)C(=O)N1 (stereo partly drawn) [Example 88, 3-(5-(7-((1-(2-fluoro-4-(cis-7-hydroxyl-3-phenylchroman-4-yl)phenyl)piperidin-4-yl)methyl)-2,7-diazaspiro[3.5]nonane-2-yl)-1-oxoisoinodolin-2-yl)piperidin-2,6-dione]	–	< 10	< 10	50 to 75	Percentage reduction of ER (ER [1]; compound concentration 10 nM): 47%
